The results in this text go back to US10100076B2, “Modified nucleosides for the treatment of viral infections and abnormal cellular proliferation” (priority 2000, dated 2018).

For one series, the system named is HCV replicon. Nature of the series: HCV replicon system in Huh7 cells, replicon RNA by Q-RT-PCR (HCV ΔCt, ΔΔCt). Type of series: cell-based, hepatitis C virus. Particulars: for Ave. ΔΔCt: HCV RNA ΔCt minus rRNA ΔCt; for Ave. HCV RNA ΔCt: HCV replicon in Huh7 cells; for average ΔΔCt: HCV RNA ΔCt minus rDNA ΔCt. (In general: In antiviral work, replicon cells carry a viral genome segment that copies itself.)

Series [1] relates to rRNA (host RNA polymerase I product). Nature of the series: rRNA ΔCt in Huh7 replicon cells (effect on host RNA polymerases). Particulars: Table 24, average of n. From the text: In a typical setting, a compound might reduce both the host RNA polymerase activity and the replicon-encoded polymerase activity. Therefore, quantification of rRNA (or any other host RNA polymerase I product) or beta-actin mRNA (or any other host RNA polymerase II) and comparison with RNA levels of the no-drug control is a relative measurement of the effect of the test compound on host RNA polymerases.
With the availability of both the HCV ΔCt data and the rRNA ΔCt, a specificity parameter can be introduced. This parameter is obtained by subtracting both ΔCt values from each other.

A further series concerns rDNA (host DNA). Nature of the series: rDNA ΔCt in Huh7 replicon cells (effect on cellular DNA polymerases). Particulars: Table 25, average of N. From the text: In another typical setting, a compound might reduce the host RNA polymerase activity, but not the host DNA polymerase activity. Therefore, quantification of rDNA or beta-actin DNA (or any other host DNA fragment) and comparison with DNA levels of the no-drug control is a relative measurement of the inhibitory effect of the test compound on cellular DNA polymerases.
With the availability of both the HCV ΔCt data and the rDNA ΔCt, a specificity parameter can be introduced. This parameter is obtained by subtracting both ΔCt values from each other.
Also: test concentration or dose not given here.

As to `Nc1nc(=O)n([C@@H]2O[C@H](CO)[C@@H](O)[C@@H]2Br)cc1I` [β-D-BH], the “Ave. ΔΔCt” value with HCV replicon (Table 24) is 2.15. In addition, the “Ave. HCV RNA ΔCt” value in the series on HCV replicon (Table 24, average of n) stood at 3.06; with HCV replicon (Table 25, average of N) it was 3.06. Besides, the “average ΔΔCt” value in the series with HCV replicon (Table 25) worked out at 1.64. Also, the “Ave. rRNA ΔCt” value in series [1] is 0.91. Moreover, in the series with rDNA (host DNA), the “Ave. rDNA ΔCt” value stood at 1.42.
Consider `OC[C@@H]1C=C(F)[C@H](n2cnc3c(Cl)ncnc32)O1` [β-D-FA], for which the “Ave. ΔΔCt” value in the series with HCV replicon (Table 24) is 1.44. For the same compound, the “Ave. HCV RNA ΔCt” value in the series with HCV replicon (Table 24, average of n) came out at 3.80; in the series on HCV replicon (Table 25, average of N), 3.80. Further, the “average ΔΔCt” value with HCV replicon (Table 25) stood at 0.78. Moreover, the “Ave. rRNA ΔCt” value in series [1] is on record as 3.58. For the same compound, the “Ave. rDNA ΔCt” value in the series with rDNA (host DNA) was found to be 1.92.
`OC[C@@H]1O[C@H](n2cnc3c(Cl)ncnc32)CS1` [β-L-KA]: in the series on HCV replicon (Table 24), the “Ave. ΔΔCt” value was −0.74. In addition, the “Ave. HCV RNA ΔCt” value came out at 4.10 in the series on HCV replicon (Table 24, average of n) and 4.10 in the series with HCV replicon (Table 25, average of N). The “average ΔΔCt” value in the series on HCV replicon (Table 25) is listed as 3.69. The “Ave. rRNA ΔCt” value in series [1] amounted to 4.84. For the same compound, the “Ave. rDNA ΔCt” value in the series on rDNA (host DNA) came out at 0.42.
In the case of `O=c1nc(NO)c(Br)cn1[C@@H]1O[C@H](CO)[C@@H](O)[C@H]1O` [β-D-BU], the “Ave. ΔΔCt” value with HCV replicon (Table 24) amounted to 1.06. Further, the “Ave. HCV RNA ΔCt” value with HCV replicon (Table 24, average of n) came out at 3.46; in the series on HCV replicon (Table 25, average of N), 3.46. Besides, the “average ΔΔCt” value in the series on HCV replicon (Table 25) is 1.16. Further, the “Ave. rRNA ΔCt” value in series [1] was 2.18. Further, in the series on rDNA (host DNA), the “Ave. rDNA ΔCt” value is recorded as 1.10.
As for `N=c1nc2c(c[nH]1)[C@@H]1O[C@H](CO)[C@@H](O)[C@@H]1O2` [β-D-TA], the “Ave. ΔΔCt” value in the series with HCV replicon (Table 24) worked out at 0.69. In addition, the “Ave. HCV RNA ΔCt” value in the series with HCV replicon (Table 24, average of n) is 4.00; in the series with HCV replicon (Table 25, average of N) it was 4.00. Also, the “average ΔΔCt” value with HCV replicon (Table 25) is reported as 0.93. The “Ave. rRNA ΔCt” value in series [1] was determined as 3.31. Also, in the series on rDNA (host DNA), the “Ave. rDNA ΔCt” value is listed as 3.07.
Regarding `[2H]c1c(N)nc(=O)n([C@@H]2O[C@H](CO)[C@@H](O)[C@@H]2O)c1[2H]` [β-D-AO], the “Ave. ΔΔCt” value in the series with HCV replicon (Table 24) is reported as 1.97. The “Ave. HCV RNA ΔCt” value with HCV replicon (Table 24, average of n) turned out to be 4.10; with HCV replicon (Table 25, average of N), 4.10. Also, the “average ΔΔCt” value in the series on HCV replicon (Table 25) worked out at 2.26. Moreover, in series [1], the “Ave. rRNA ΔCt” value amounted to 2.13. Also, the “Ave. rDNA ΔCt” value with rDNA (host DNA) was found to be 1.84.
Turning to `Nc1nc(=O)n([C@@H]2O[C@H](CO)[C@@H](O)[C@@H]2O)cc1F` [β-D-AP], the “Ave. ΔΔCt” value in the series with HCV replicon (Table 24) came to 0.05. Further, the “Ave. HCV RNA ΔCt” value is 3.27 in the series on HCV replicon (Table 24, average of n) and 3.27 with HCV replicon (Table 25, average of N). In addition, the “average ΔΔCt” value with HCV replicon (Table 25) is recorded as 1.02. The “Ave. rRNA ΔCt” value in series [1] amounted to 3.23. In addition, the “Ave. rDNA ΔCt” value in the series on rDNA (host DNA) is reported as 2.26.
As for `N=c1nc2n(cc1F)[C@@H]1O[C@H](CO)[C@@H](O)[C@@H]1O2` [β-D-MF], in the series with HCV replicon (Table 24), the “Ave. ΔΔCt” value turned out to be 1.10. For the same compound, the “Ave. HCV RNA ΔCt” value in the series on HCV replicon (Table 24, average of n) worked out at 3.79; in the series on HCV replicon (Table 25, average of N), 3.79. Also, the “average ΔΔCt” value in the series on HCV replicon (Table 25) was found to be 1.65. Moreover, the “Ave. rRNA ΔCt” value in series [1] worked out at 2.69. Moreover, the “Ave. rDNA ΔCt” value in the series on rDNA (host DNA) worked out at 2.17.
On to `O=c1nc(NO)c(F)cn1[C@@H]1O[C@H](CO)[C@@H](O)[C@H]1O` [β-D-BT], for which the “Ave. ΔΔCt” value with HCV replicon (Table 24) amounted to 1.24. The “Ave. HCV RNA ΔCt” value was found to be 4.83 with HCV replicon (Table 24, average of n) and 4.44 with HCV replicon (Table 25, average of N). In the series with HCV replicon (Table 25), the “average ΔΔCt” value came to 3.39. Also, the “Ave. rRNA ΔCt” value in series [1] stood at 3.59. For the same compound, the “Ave. rDNA ΔCt” value in the series on rDNA (host DNA) was 1.17.
Consider `CS(=O)(=O)OC1C(CO)OC(n2ccc(N)nc2=O)C1O` [β-D-AK], for which the “Ave. ΔΔCt” value in the series on HCV replicon (Table 24) was determined as 1.25. The “Ave. HCV RNA ΔCt” value with HCV replicon (Table 24, average of n) is recorded as 3.73; in the series with HCV replicon (Table 25, average of N) it was 3.51. In addition, the “average ΔΔCt” value in the series on HCV replicon (Table 25) was found to be 0.79. Further, the “Ave. rRNA ΔCt” value in series [1] was 2.48. For the same compound, in the series on rDNA (host DNA), the “Ave. rDNA ΔCt” value stood at 2.69.
In the case of `CC1(CO)CO[C@@H](n2cnc3c(N)nc(F)nc32)C1` (stereo partly drawn) [β-D-VA], in the series on HCV replicon (Table 24), the “Ave. ΔΔCt” value came out at 1.39. In addition, the “Ave. HCV RNA ΔCt” value with HCV replicon (Table 24, average of n) was 5.56. In addition, in series [1], the “Ave. rRNA ΔCt” value came to 4.17.
For the compound `CC(=O)Nc1ccn([C@@H]2O[C@H](CO)[C@@H](O)[C@@H]2O)c(=O)n1` [β-D-BO], in the series on HCV replicon (Table 24), the “Ave. ΔΔCt” value is listed as 1.57. The “Ave. HCV RNA ΔCt” value in the series on HCV replicon (Table 24, average of n) was 4.52. Moreover, the “Ave. rRNA ΔCt” value in series [1] came to 2.95.
In the same order, the values of `NC(=O)c1ncn([C@@H]2O[C@H](CO)[C@@H](O)[C@H]2O)n1` [RIB, ribavirin, reference compound] are 0.78, 3.13 and 2.35.
